Test results published in ChEMBL document CHEMBL1155713, “Three new peroxides from the sponge Plakinastrella species” (2001).
≈ marks a conversion by molar mass, not a printed value.

Assays:
Format in all cases: functional
[1] = test system: Candida albicans; assay: Antifungal activity against Candida albicans in RPMI medium
[2] = test system: Candida albicans; assay: Antifungal activity against Candida albicans in Sabouraud dextrose broth
[3] = test system: Aspergillus fumigatus; assay: Antifungal activity against Aspergillus fumigatus

Structure (SMILES) | MIC [1] [µg/mL] | MIC [2] [µg/mL] | IC90 [3] [µg/mL]
CC/C=C/C=C/C=C/CCCCCCCC[C@@]1(C)C[C@](C)(CC(=O)O)OO1 [EPIPLAKINIC ACID F] | 6.25 (≈ 16.5 µM) | 25 (≈ 66 µM) | 25 (≈ 66 µM)
C[C@@]1(CCCCCCCCCc2ccc(O)cc2)C[C@]2(C)OC(=O)C[C@@H]2OO1 [PLAKORTOLIDE F] | > 125 | > 125 | > 125
CC/C=C/C=C/C=C/CCCCCCCC[C@]1(C)C[C@](C)(CC(=O)O)OO1 [PLAKINIC ACID F] | 3.1 (≈ 8.19 µM) | 25 (≈ 66 µM) | 25 (≈ 66 µM)
